Measurements: ChEMBL document CHEMBL5338729, “E3 Ligases Meet Their Match: Fragment-Based Approaches to Discover New E3 Ligands and to Unravel E3 Biology” (J Med Chem, 2023)
Each block holds one compound with its values, some of them ahead of it.

Key:
Protein cereblon = Protein cereblon (Homo sapiens, UniProt Q96SW2); assay: Binding affinity to CRBN (unknown origin) assessed as inhibition constant by FRET assay
[1] = target: T1, E3 ubiquitin-protein ligase RNF4 (Homo sapiens, UniProt P78317); assay: Inhibition of human recombinant RNF4 incubated for 30 mins by SDS-PAGE based densitometry
T1 sequence (P78317 whole entry): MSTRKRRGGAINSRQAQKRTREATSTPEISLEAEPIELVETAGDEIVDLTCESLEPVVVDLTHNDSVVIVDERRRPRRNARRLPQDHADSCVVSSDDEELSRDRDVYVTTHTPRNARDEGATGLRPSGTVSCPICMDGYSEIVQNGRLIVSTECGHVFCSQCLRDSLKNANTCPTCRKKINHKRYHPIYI

[2] = Binding affinity to RING1B-BMI1 (unknown origin); set-up: species or system Homo sapiens
[3] = target: von Hippel-Lindau disease tumor suppressor (Homo sapiens, UniProt P40337); assay: Binding affinity to VHL (unknown origin) assessed as dissociation constant by isothermal titration calorimetry assay
Sequence of von Hippel-Lindau disease tumor suppressor (P40337 whole entry): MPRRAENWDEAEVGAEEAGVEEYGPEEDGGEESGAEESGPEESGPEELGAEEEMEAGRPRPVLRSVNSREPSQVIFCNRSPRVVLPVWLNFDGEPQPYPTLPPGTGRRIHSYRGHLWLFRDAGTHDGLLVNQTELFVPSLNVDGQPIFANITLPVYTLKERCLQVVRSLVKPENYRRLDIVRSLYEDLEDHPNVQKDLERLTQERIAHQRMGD

[4] = Inhibition of RING1B-BMI1 (unknown origin); set-up: species or system Homo sapiens
[5] = target: T2, E3 ubiquitin-protein ligase RNF31 (Homo sapiens, UniProt Q96EP0); assay: Binding affinity to HOIP (unknown origin) assessed as dissociation constant
T2 sequence (Q96EP0 whole entry): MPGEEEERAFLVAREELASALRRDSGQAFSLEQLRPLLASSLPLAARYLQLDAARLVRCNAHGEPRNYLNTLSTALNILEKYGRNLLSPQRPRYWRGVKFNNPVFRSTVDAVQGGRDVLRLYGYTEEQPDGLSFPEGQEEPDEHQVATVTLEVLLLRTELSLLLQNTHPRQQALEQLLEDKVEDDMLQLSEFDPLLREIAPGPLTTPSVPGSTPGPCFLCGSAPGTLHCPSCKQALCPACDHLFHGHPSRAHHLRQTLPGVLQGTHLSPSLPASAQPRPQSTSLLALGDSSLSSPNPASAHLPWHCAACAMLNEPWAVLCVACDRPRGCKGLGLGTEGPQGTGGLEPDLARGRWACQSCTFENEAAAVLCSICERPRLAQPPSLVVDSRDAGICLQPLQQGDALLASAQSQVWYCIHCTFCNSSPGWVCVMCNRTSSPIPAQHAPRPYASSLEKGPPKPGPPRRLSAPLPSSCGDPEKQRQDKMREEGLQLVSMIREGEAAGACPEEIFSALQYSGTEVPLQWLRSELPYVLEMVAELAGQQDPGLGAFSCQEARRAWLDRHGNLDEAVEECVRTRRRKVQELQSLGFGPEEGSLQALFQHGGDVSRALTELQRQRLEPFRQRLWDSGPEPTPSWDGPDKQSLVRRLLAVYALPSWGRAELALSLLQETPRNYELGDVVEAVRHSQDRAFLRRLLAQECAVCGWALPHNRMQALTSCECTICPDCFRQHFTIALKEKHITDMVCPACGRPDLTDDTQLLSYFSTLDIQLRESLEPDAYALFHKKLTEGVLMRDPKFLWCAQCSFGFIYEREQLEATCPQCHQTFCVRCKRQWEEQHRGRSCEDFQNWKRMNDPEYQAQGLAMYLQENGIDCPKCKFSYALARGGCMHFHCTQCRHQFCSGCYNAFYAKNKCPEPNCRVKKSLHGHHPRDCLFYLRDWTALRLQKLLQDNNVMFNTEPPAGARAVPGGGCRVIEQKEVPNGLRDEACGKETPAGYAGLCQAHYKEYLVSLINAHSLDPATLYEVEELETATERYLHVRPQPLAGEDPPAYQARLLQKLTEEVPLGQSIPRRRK

Sequence of Protein cereblon (Q96SW2 whole entry): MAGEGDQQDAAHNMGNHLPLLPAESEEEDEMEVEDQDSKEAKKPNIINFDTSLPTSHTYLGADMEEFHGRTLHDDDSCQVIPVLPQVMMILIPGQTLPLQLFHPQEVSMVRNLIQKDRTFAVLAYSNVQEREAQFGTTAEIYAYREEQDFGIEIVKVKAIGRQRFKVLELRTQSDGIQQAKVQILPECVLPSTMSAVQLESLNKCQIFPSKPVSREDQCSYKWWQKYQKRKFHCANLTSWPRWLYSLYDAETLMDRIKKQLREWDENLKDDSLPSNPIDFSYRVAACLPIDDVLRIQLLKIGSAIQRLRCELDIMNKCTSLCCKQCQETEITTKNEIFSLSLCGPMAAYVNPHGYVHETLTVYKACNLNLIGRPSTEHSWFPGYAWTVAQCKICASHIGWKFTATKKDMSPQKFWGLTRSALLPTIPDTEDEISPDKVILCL

SMILES: O=C1CCCCN1
Ki (Protein cereblon): 146 µM

SMILES: O=C1CCNC(=O)N1
Ki (Protein cereblon): 88 µM

SMILES: O=C1CCN1
Ki (Protein cereblon): 77 µM

SMILES: O=C1CCSc2ccc(Cl)cc21
Kd [3]: 6700 µM

SMILES: CC(=O)NC(N)=O
Ki (Protein cereblon): 522 µM

SMILES: COC(=O)/C=C/CNC(=O)c1cc2c([nH]c1=O)CCC2
Kd [5]: > 400 µM

SMILES: O=C1CNC(=O)N1 [HYDANTOIN]
Ki (Protein cereblon): 43 µM

SMILES: O=C1CCC(=O)N1 [SUCCINIMIDE]
Ki (Protein cereblon): 4.3 µM

SMILES: O=c1cc[nH]c(=O)[nH]1 [URACIL]
Ki (Protein cereblon): 35 µM

More lines, now with the values ahead:

IC50 [1]: 10 µM
SMILES: O=C(CCl)Nc1ccc(Oc2ccccc2)cc1

Kd [2]: ~7000 µM
SMILES: O=C(O)c1ccc(-c2ccccc2)s1

Kd [3]: 5000 µM
SMILES: OCc1ccc(-n2cccc2)cc1

Kd [2]: 2.8 µM | IC50 [4]: 1.6 µM
SMILES: CC(C)c1c(-c2cccc3[nH]ccc23)[nH]c(C(=O)O)c1-c1c(Cl)ccc2[nH]ccc12

Kd [2]: 11.5 µM | IC50 [4]: 12 µM
SMILES: CCc1c(-c2cccc3[nH]ccc23)[nH]c(C(=O)O)c1-c1ccccc1Cl
